Common to all, as to test: ≥ marks a high value that may be exact or a test limit, other limits are often not marked, values filed in µg/mL are converted to µM
Assay [1] concerns Klebsiella pneumoniae MTCC 7407.
The test system of assay [2] is Proteus mirabilis MTCC 3158.
For assay [3], the system named is Enterococcus faecalis MTCC 439.
In assay [4] the test system is Staphylococcus aureus MTCC 3160.
Assay [5] relates to Klebsiella oxytoca MTCC 2275.
Assay [6] deals with Haemophilus influenzae MTCC 621.
The subject of assay [7] is Alkalihalobacillus alcalophilus MTCC 860.
For assay [8], the system named is Salmonella enterica subsp. enterica serovar Typhimurium ATCC 14028.
The test system of assay [9] is Shigella flexneri MTCC 1457.
The test system of assay [10] is Salmonella enterica MTCC 9844.
Assay [11] deals with Bordetella bronchiseptica MTCC 6837.
Assay [12] has as its system Proteus vulgaris MTCC 1771.
The test system of assay [13] is Staphylococcus haemolyticus MTCC 3383.
The test system of assay [14] is Pluralibacter gergoviae MTCC 3826.
Assay [15] has as its system Acinetobacter baumannii MTCC 9829.
Assay [16] relates to Stenotrophomonas maltophilia MTCC 1890.
For assay [17], the system named is Citrobacter freundii MTCC 1658.
The test system of assay [18] is Escherichia coli K12 MG1655.
Assay [19] concerns Shigella boydii MTCC 11947.
Assay [20] deals with Vibrio cholerae MTCC 3904.
Assay [21] deals with Klebsiella aerogenes MTCC 111.
The test system of assay [22] is Corynebacterium glutamicum MTCC 2679.
Assay [23] relates to Pseudomonas aeruginosa MTCC 3542.
The subject of assay [24] is Citrobacter koseri MTCC 1657.
Assay [25] has as its system Alcaligenes faecalis MTCC 1937.
The test system of assay [26] is Staphylococcus aureus MTCC 9542.
For assay [27], the system named is Staphylococcus aureus ATCC 43300.
Assay [28] has as its system Bacillus subtilis MTCC 14416.
Assay [29] has as its system Enterococcus faecalis ATCC 29212.
The test system of assay [30] is Vibrio cholerae.
Assay [31] deals with Pseudomonas aeruginosa ATCC 27853.
For assay [32], the system named is Escherichia coli MG1655.
Assay [33] concerns Staphylococcus pseudintermedius.
Assay [34] relates to Pseudomonas aeruginosa PA006.
Assay [35] concerns Staphylococcus sciuri.
Assay [36] has as its system Staphylococcus haemolyticus.
The subject of assay [37] is Escherichia coli.
Assay [38] concerns Klebsiella pneumoniae ATCC 13833.
The subject of assay [39] is Escherichia coli ATCC 25922.
The subject of assay [40] is Staphylococcus epidermidis ATCC 12228.
Assay [41] has as its system Cryptococcus neoformans B3501.
For assay [42], the system named is Trichophyton rubrum ATCC 28189.
Assay [43] has as its system Staphylococcus simulans.
Assay [44] relates to Trichophyton mentagrophytes.
Assay [45] deals with Staphylococcus pseudintermedius MW767056.
Assay [46] relates to Pseudomonas aeruginosa PA002.
Assay [47] has as its system Staphylococcus cohnii MW767053.
Assay [48] relates to Pseudomonas aeruginosa PAO1.
Assay [49] relates to Klebsiella pneumoniae.
The test system of assay [50] is Microsporum canis MW768151.
Assay [51] has as its system Candida albicans ATCC 90028.
The subject of assay [52] is Proteus mirabilis.
Assay [53] has as its system Microsporum canis.

Each structure is given as a SMILES string. Converted amounts (≈) assume the structure as drawn. “And” between values parts separate entries of the source, which are not always exact repeats. Equal entries are not always repeated.

Turning to `CC[C@H](C)[C@H](NC(=O)[C@H](C)NC(=O)[C@@H]1CCCN1C(=O)[C@@H]1CCCN1C(=O)[C@H](CC(C)C)NC(=O)[C@H](Cc1cnc[nH]1)NC(=O)[C@H](CCCCN)NC(=O)[C@H](C)NC(=O)[C@@H](NC(=O)CNC(=O)[C@H](CCCCN)NC(=O)[C@H](C)NC(=O)[C@@H](NC(=O)[C@@H](N)CCC(=O)O)[C@@H](C)O)C(C)C)C(=O)N[C@@H](C)C(=O)O` [ETAKGVAKHLPPAIA], the MIC in assay [1], in assay [2], in [3], in assay [4], in assay [5] and in assay [6] was at least 85.2 µM each time. The MIC in assay [7] is at least 85.2 µM; in [8], above 85.2 µM; in assay [9] it was at least 85.2 µM; in [10], at least 85.2 µM; in assay [11] it was at least 85.2 µM; in [12] it was at least 85.2 µM. In addition, the MIC in [13], in assay [14], in [15], in [16], in assay [17] and in assay [18] was at least 85.2 µM in each case. The MIC in [19], in assay [20], in [21], in assay [22], in [23] and in [24] was at least 85.2 µM in each case. The molecule also displayed an MIC in assay [25] of at least 85.2 µM.
Consider `CC[C@H](C)[C@H](N)C(=O)N[C@@H](C)C(=O)NCC(=O)N[C@@H](CC(C)C)C(=O)N[C@@H](C)C(=O)N[C@@H](C)C(=O)N[C@@H](CC(N)=O)C(=O)N[C@@H](Cc1ccccc1)C(=O)N[C@@H](CC(C)C)C(=O)N1CCC[C@H]1C(=O)N[C@@H](CCC(N)=O)C(=O)N[C@H](C(=O)N[C@@H](CC(C)C)C(=O)N[C@@H](CS)C(=O)N[C@@H](CCCCN)C(=O)N[C@H](C(=O)N[C@@H](C)C(=O)N[C@@H](CCCN=C(N)N)C(=O)N[C@@H](CCCCN)C(N)=O)[C@@H](C)CC)[C@@H](C)CC` [IAGLAANFLPQILCKIARK], for which the MIC in assay [26] was 24.5 µM (≈ 50 µg/mL); in assay [27], 24.5 µM (≈ 50 µg/mL); in [28], 24.5 µM (≈ 50 µg/mL); in assay [29], 24.5 µM (≈ 50 µg/mL); in assay [30], 24.5 µM (≈ 50 µg/mL); in assay [31] it was above 49 µM. The same molecule registered an MIC in assay [32] of 12.3 µM (≈ 25 µg/mL).
For `CC[C@H](C)[C@H](NC(=O)[C@H](Cc1ccccc1)NC(=O)CNC(=O)[C@H](CCCCN)NC(=O)[C@@H](NC(=O)[C@H](Cc1ccccc1)NC(=O)[C@H](CCCCN)NC(=O)[C@H](CCCN=C(N)N)NC(=O)[C@@H](NC(=O)[C@@H](NC(=O)[C@H](CCCN=C(N)N)NC(=O)[C@@H](NC(=O)[C@H](C)NC(=O)[C@H](Cc1c[nH]c2ccccc12)NC(=O)[C@@H](N)CCCCN)C(C)C)[C@@H](C)CC)[C@@H](C)CC)[C@@H](C)CC)C(=O)N[C@@H](CO)C(N)=O` [KWAVRIIRKFIKGFIS], the MIC was at least 32.6 µM in [33]; 2.04 µM (≈ 4 µg/mL) in assay [34]; at least 130 µM in assay [35]; at least 65.2 µM in assay [36]; 1.44 µM and 2.88 µM in [37]; 1 µM (≈ 1.96 µg/mL) in assay [38]. Further, the MIC in [39] was 2.04 µM and 2 µM; in [40], 1 µM (≈ 1.96 µg/mL); in assay [41], 2 µM (≈ 3.92 µg/mL); in assay [42], 8 µM (≈ 15.7 µg/mL); in assay [43], at least 32.6 µM; in assay [29], 8.15 µM (≈ 16 µg/mL). Also, the MIC in assay [31] was 4.08 µM and 1.67 µM and 4 µM; in [44], 0.51 µM (≈ 1 µg/mL); in assay [45], at least 130 µM; in assay [46], 8.15 µM (≈ 16 µg/mL); in assay [47], 16.3 µM (≈ 32 µg/mL); in [48], 4.08 µM (≈ 8 µg/mL). Further, the MIC in assay [49] is 5.77 µM (≈ 11.3 µg/mL); in [50] it was 0.51 µM (≈ 1 µg/mL); in assay [51], 1.67 µM (≈ 3.28 µg/mL); in assay [52] it was at least 65.2 µM; in [53], 1.44 µM (≈ 2.83 µg/mL).
